Assay results published in a melting point compilation (Tetko et al.).

SMILES	melting point
Cc1onc(-c2ccccc2)c1C(=O)O	192 to 193 °C
CC1C=C(CO)N=N1 (centres undefined)	79 °C
NC(=NO)c1cccc(C(F)(F)F)c1	82 to 88 °C
Nc1c(F)c(F)c(-c2c(F)c(F)c(F)c(F)c2F)c(F)c1F	146 °C
FC(F)(F)Sc1ccc(CBr)cc1	55 °C
CC(C)CCCC(C)C1CCC2C3CC(O)C4=CC(=O)CCC4(C)C3CCC12C (centres undefined)	189 to 193 °C
O=C(O)c1ncoc1-c1ccccc1	181 °C
CC1(C)CC(=O)c2cc(-c3ccccc3)n(Cc3ccc(Cl)cc3)c2C1	115 to 117 °C
COC(=O)c1cc2ccccc2c(O)c1C(=O)OC	105 °C
O=C(O)c1ccc(Br)o1	190 °C
Clc1c(Cl)c(Cl)c2c(c1Cl)OC1Cc3ccccc3C1O2 (centres undefined)	159 °C
COc1cc(/C=C/C(=O)O)ccc1O	173 °C
CC1=NN(c2ccccc2)C(=O)C1C(=O)c1ccccc1 (centres undefined)	90 to 92 °C
CC1NC(C(=O)O)CS1 (mixture of isomers)	180 to 185 °C
O=S(=O)(Cl)c1ccc(Oc2ccccc2Cl)cc1	89 to 90 °C
COc1cc(/C=C/C(=O)c2ccc3ccccc3c2)cc(OC)c1OC	119 °C
C=C(C)C1CCC2(C)CCC3(C)C(CCC4C5(C)CCC(O)C(C)(C)C5CCC43C)C12 (centres undefined)	216 °C
COc1nc2c(c(=O)n(C)c(=O)n2C)n1C	176 °C
O=C1Nc2ccc([N+](=O)[O-])cc2C1=O	251 °C
COc1ccc(CC(=O)O)c(OC)c1	110 °C
Brc1ccc2[nH]c3ccc(Br)cc3c2c1	212 °C
O=C1OC(/C=C/c2ccc([N+](=O)[O-])cc2)Cc2ccccc21 (centres undefined)	180 to 182 °C
O=[N+]([O-])c1ccc2c(c1)=[N+]([O-])C1(CCCC1)[N+]=2[O-]	148 to 150 °C
CCCCCC(N)=O	101 °C
CC(=O)CCc1oc2ccc(I)cc2c1-c1ccc(C)o1	94 °C

SMILES	melting point
OC(c1ccccc1)(c1ccccc1)C1CCNCC1	160 °C
C=C1C(=O)C23C(OC(C)=O)CC4C(C)(C)CCC(OC(C)=O)C4(C)C2C(OC(C)=O)CC12OC(C)(C)OC23 (centres undefined)	259 °C
CC12CCC(=O)C=C1CCC1C2CCC2(C)C(OC(=O)CCC3CCCC3)CCC12 (centres undefined)	155 °C
CN(C(=S)Cl)c1ccc(Br)cc1	101 to 104 °C
FC(F)(F)CCl	-106 °C
Nc1c(S(=O)(=O)c2ccccc2)csc1C(=O)O	174 to 176 °C
O=C(O)C1Cc2ccccc21 (centres undefined)	74 °C
O=C(c1ccccc1)c1coc(-c2ccc(Cl)cc2)c1S(=O)(=O)c1ccccc1	96 to 97 °C
C[Si](O)(c1ccccc1)c1ccccc1	167 °C
CCC(=O)C1CCCCC1C(C)(C)C(=O)O (centres undefined)	115 °C
CN1CC(Br)C(=O)NC1=O (centres undefined)	153 to 155 °C
CC12CCC(O)CC1CC1(OCCO1)C1C2CCC2(C)C1CCC21OCCO1 (centres undefined)	99 to 103 °C
Cc1cc(N)n(C)n1	75 °C
O=[N+]([O-])c1ccc(ON=Cc2cc(Br)c(O)c(Br)c2)c([N+](=O)[O-])c1	196 °C
COc1ccc(C=C(CC(=O)O)C(=O)O)cc1	186 to 188 °C
O=C1C(=O)c2ccccc2CCc2ccccc21	132 °C
O=C(O)CCCc1ccc(Br)cc1	67 to 69 °C
COC(=O)CSc1cc(N=c2sc(=O)n3n2CCCC3)c(F)cc1Cl	106 °C
Cc1n[nH]c2c1c(=O)n(-c1ccccc1)c1ccccc21	162 to 163 °C
CCCCCCCCC=CCCCCCCCC(=O)OCC(COC(=O)CCCCCCCC=CCCCCCCCC)OC(=O)CCCCCCCC=CCCCCCCCC (centres undefined)	-32 °C
COc1ccccc1-c1nnc2n1CN(c1ccccc1)CS2	165 °C
Oc1ccc(F)c2cccnc12	110 °C
COc1ccc(S(N)(=O)=O)cc1F	126 °C
Cc1ccc(Sc2ncccc2C(=O)O)cc1	218 to 221 °C
NCCCC(N)C(=O)O (centres undefined)	140 °C

SMILES	melting point
Oc1ccc(-c2ccccc2)cc1Cl	77 °C
COc1ccc2ccc(=O)oc2c1	119 °C
Brc1nc2ccccc2s1	40 to 42 °C
CC(=O)Oc1cccc(C(N)=O)c1	140 °C
O=C1C=C(O)C(=O)C=C1O	220 °C
Cc1c(O)cc2c(c1C)OC(C)(CCCC(C)CCCC(C)CCCC(C)C)CC2 (centres undefined)	-3 °C
CSc1ccc(N)cc1C(F)(F)F	57 °C
CC12CCC(O)C(C)(C)C1C(=O)C(=O)c1c(O)c(C(CO)CO)c(O)c(O)c12 (centres undefined)	238 to 240 °C
NC(=S)c1ncc(C(F)(F)F)cc1N1CCCC1	176 to 180 °C
O=C(Oc1c(F)c(F)c(F)c(F)c1F)C1CCN(c2ncnc3ccsc23)CC1	99 to 104 °C
O=C(CBr)c1cccc(Cl)c1	39 to 41 °C
NNC(=O)CSC1CS(=O)(=O)c2cc([N+](=O)[O-])ccc21 (centres undefined)	181 to 182 °C
Fc1cccc(CBr)c1C(F)(F)F	42 °C
N#CC(O)C(Cl)(Cl)Cl (centres undefined)	61 °C
Cc1ncc(CO)c(CO)c1O	160 °C
COc1cccc(CC(C)=O)c1	258 to 260 °C
Nc1c(Cl)cc([N+](=O)[O-])cc1Br	175 °C
Cc1ccc(C)c(C(=O)N(NC(=O)c2ccccc2)C(C)(C)C)c1	198 °C
CCOC(=O)c1cnc2c(c(C)nn2C)c1Oc1ccc(F)cc1	110 to 112 °C
C=CCNC(=O)OC(C)(C)C	37 °C
Brc1cccc(Oc2ccc(Br)c(Br)c2)c1	< 20 °C
Cc1ccc(C#N)cc1Br	41 °C
Cc1ccc(Cc2ccc(CP(=O)(c3ccccc3)c3ccccc3)o2)o1	220 to 221 °C
FCC(F)F	-84 °C
CC12CCC3C(CCC4CC(OC=O)CCC43C)C1CC=C2C#Cc1ccccc1 (centres undefined)	179 to 180 °C

SMILES	melting point
CC(C)(C)OC(=O)N[C@@H](CCCCN)C(=O)O	205 °C
CCN(CC)c1ccc([N+](=O)[O-])cc1	77.5 °C
CCCCCCCOc1ccc(-c2ccc(C#N)cc2)cc1	54 °C
O=[N+]([O-])c1cc(S(=O)(=O)Cl)ccc1Cl	60 °C
COc1cc2c(cc1OCc1ccccc1)C(C)NCC2 (centres undefined)	91 °C
CC(O)C(O)(c1ccccc1)c1ccccc1 (centres undefined)	92 °C
O=C(O)C=Cc1ccccc1F	179 °C
Oc1cc(OCc2ccccc2)ccn1	196 °C
CC(C(=O)O)C(O)(c1ccccc1)c1ccccc1 (centres undefined)	182 °C
Cc1ccc(NN=C2C(=O)NN=C2c2c(O)c3ccccc3n(C)c2=O)cc1	218 °C
O=C(Cl)c1ccccc1[N+](=O)[O-]	17 to 20 °C
Nc1ccc(OC2CCOCC2)cc1	71 to 73 °C
Cc1cccnc1NC(=O)C(F)(F)C(F)(F)C(F)(F)C(F)(F)C(F)(F)C(F)(F)C(F)(F)C(F)(F)F	161 °C
COc1ccc(C(=O)O)cc1OCc1ccccc1	180 °C
CC(CO)(NC(=O)c1ccccc1)C(=O)O (racemic)	153 to 159 °C
Cc1cc([N+](=O)[O-])cnc1Br	57 °C
c1ccc(N2CN(c3ccccc3)CN(c3ccccc3)C2)cc1	191 °C
O=C(O)/C=C/c1ccc2ccc(=O)[nH]c2c1	330 °C
COc1ccc(C(C)=O)cc1Cl	75 °C
CNc1ccncc1	126 °C
CCOC(=O)c1c(SC)nn(C(=O)c2ccccc2)c1N	95 °C
Cn1c(/C(C#N)=N/Nc2c(Br)cc(Br)cc2Br)nc2ccccc21	180 °C
COc1ccc(NN=c2c(C)nc3ccccc3[nH]c2=O)cc1	196 °C
Nc1cccnc1Oc1ccccc1F	87 to 89 °C
O=C(O)c1ccc(SSc2ccc(C(=O)O)cc2[N+](=O)[O-])c([N+](=O)[O-])c1	308 °C

SMILES	melting point
Cn1c2ccccc2c(=O)c2ccccc21	204 to 207 °C
O=C(Nc1ccc([N+](=O)[O-])cc1[N+](=O)[O-])C(C(F)(F)F)C(F)(F)F	120 to 122 °C
CC(C)c1ccncc1	-54.9 °C
CC(C)(C)OC(=O)NC(Cc1cccc2ccccc12)C(=O)O (centres undefined)	145 to 148 °C
CC(C)CCOC(=O)c1cc([N+](=O)[O-])cc([N+](=O)[O-])c1	61 °C
O=C1Cc2cc3c(cc21)C(=O)C3	207 °C
Cc1cccc(C)c1N(C)C	-36 °C
Cn1cnc2c(N)ncnc21	300 to 302 °C
Cc1ccc(C(Br)C(=O)c2ccc(Cl)cc2)cc1 (centres undefined)	76 to 78 °C
Nc1c(O)cc(S(=O)(=O)O)c2ccccc12	295 °C
N#Cc1ccc(N)c(C(F)(F)F)c1	62 °C
CC(C)(C)CC(C)(C)S	-74 °C
COC(=O)c1ccc(CCl)cc1	40 °C
NC(CCS)C(=O)O (centres undefined)	232 °C
O=C(O)c1csc(-c2cccc(Cl)c2)n1	206 to 207 °C
CC(=O)OC1(C(C)=O)CCC2C3CC(C)C4=CC(=O)C=CC4(C)C3(F)C(O)CC21C (centres undefined)	298 °C
O=C(O)c1cn(C2CCCCC2)c2ccccc2c1=O	237 to 238 °C
O=C(O)c1ccnc(N2CCOCC2)c1	180 °C
O=S(=O)(O)CC(O)CN(CCO)CCO (centres undefined)	189 to 192 °C
O=C(Oc1ccc(Cl)cc1)c1c(Cl)c(Cl)c(C(=O)Oc2ccc(Cl)cc2)c(Cl)c1Cl	244 °C
O=Cc1cc(C(=O)O)ccc1F	152 to 153 °C
N#Cc1ccccc1-n1cccc1	51 °C
O=c1[nH]c2scc(-c3ccccc3)c2c(=O)n1-c1cccc(Cl)c1	269 to 270 °C
O=C(NC(CO)(Cc1ccccc1)C(=O)O)c1ccccc1 (racemic)	160 to 162 °C
